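How tested: cells in 96-well plates exposed to compound for 48 hours at five concentrations. TGI marks complete inhibition of growth.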
Key:
Experiment in all cases: NCI anticancer screen, dose series, 48 h
[1] = system: HL-60(TB) leukemia
[2] = system: RPMI-8226 leukemia
[3] = system: OVCAR-4 ovarian
[4] = system: NCI/ADR-RES ovarian
[5] = system: SK-OV-3 ovarian
[6] = system: HT29 colon
[7] = system: ACHN renal
[8] = system: CAKI-1 renal
[9] = system: M14 melanoma
[10] = system: CCRF-CEM leukemia
[11] = system: HCT-116 colon
[12] = system: U251 CNS
[13] = system: EKVX NSCLC
[14] = system: HS 578T breast
[15] = system: HOP-62 NSCLC

C[N+](C)(C)CC(=O)N/N=C/c1ccncc1
TGI [1]: > 100 µM | TGI [2]: > 100 µM | TGI [3]: > 100 µM | TGI [4]: > 100 µM | TGI [5]: > 100 µM | TGI [6]: > 100 µM | TGI [7]: > 100 µM | TGI [8]: > 100 µM | TGI [9]: > 100 µM | TGI [10]: > 100 µM | TGI [11]: > 100 µM | TGI [12]: > 100 µM | TGI [13]: > 100 µM | TGI [14]: > 100 µM | TGI [15]: > 100 µM

CC(C)Cc1cc2c(cc1O)CCC1C2CC[C@@]2(C)C1CC[C@@H]2O (stereo partly specified)
TGI [1]: 8 µM | TGI [2]: 20.4 µM | TGI [3]: 24.3 µM | TGI [4]: 20.9 µM | TGI [5]: 24.3 µM | TGI [6]: 21.6 µM | TGI [7]: 20 µM | TGI [8]: 35.6 µM | TGI [9]: 19.3 µM | TGI [10]: 27.1 µM | TGI [11]: 16.2 µM | TGI [12]: 27 µM | TGI [13]: 26.3 µM | TGI [14]: 23.7 µM | TGI [15]: 33.1 µM

CC1=CC(=O)CC(C)(C)C1/C=C/C(C)=C/C=C/C(C)=C/C=C/C=C(C)/C=C/C=C(C)/C=C/C1=C(C)CC(O)CC1(C)C (stereo unspecified)
TGI [1]: > 100 µM | TGI [2]: 27.9 µM | TGI [3]: > 100 µM | TGI [4]: > 100 µM | TGI [5]: > 100 µM | TGI [6]: > 100 µM | TGI [7]: 74.3 µM | TGI [8]: > 100 µM | TGI [9]: > 100 µM | TGI [10]: > 100 µM | TGI [11]: 37.4 µM | TGI [12]: > 100 µM | TGI [13]: > 100 µM | TGI [14]: > 100 µM | TGI [15]: > 100 µM

O=C(CNC(c1ccccc1)(c1ccccc1)c1ccccc1)NC1CCCCC1NC(=O)CNC(c1ccccc1)(c1ccccc1)c1ccccc1 (stereo unspecified)
TGI [1]: > 100 µM | TGI [2]: > 100 µM | TGI [3]: > 100 µM | TGI [4]: > 100 µM | TGI [5]: > 100 µM | TGI [6]: > 100 µM | TGI [7]: > 100 µM | TGI [8]: > 100 µM | TGI [10]: > 100 µM | TGI [11]: > 100 µM | TGI [12]: > 100 µM | TGI [13]: 47.6 µM | TGI [14]: > 100 µM | TGI [15]: 91.6 µM

COC1OC(COC(=O)c2cc(O)c(O)c(O)c2)C(OC(=O)c2cc(O)c(O)c(O)c2)C(OC(=O)c2cc(O)c(O)c(O)c2)C1OC(=O)c1cc(O)c(O)c(O)c1 (stereo unspecified)
TGI [1]: 50.1 µM | TGI [2]: 97.3 µM | TGI [3]: > 100 µM | TGI [4]: 98.4 µM | TGI [5]: 54 µM | TGI [6]: > 100 µM | TGI [7]: > 100 µM | TGI [8]: > 100 µM | TGI [9]: 26.8 µM | TGI [10]: 42.5 µM | TGI [11]: > 100 µM | TGI [12]: > 100 µM | TGI [13]: > 100 µM | TGI [14]: > 100 µM | TGI [15]: > 100 µM

Fc1ccc(-c2sc(-c3cccs3)cc2Cc2cccs2)cc1
TGI [1]: > 100 µM | TGI [3]: > 100 µM | TGI [4]: > 100 µM | TGI [5]: > 100 µM | TGI [6]: > 100 µM | TGI [7]: > 100 µM | TGI [8]: > 100 µM | TGI [9]: > 100 µM | TGI [10]: > 100 µM | TGI [11]: > 100 µM | TGI [12]: > 100 µM | TGI [13]: > 100 µM | TGI [14]: > 100 µM

C[C@@H](NC(=O)c1ccc(CNC(=O)/C=C/c2cccc(Oc3ccccc3)c2)cc1)c1ccccc1
TGI [1]: > 100 µM | TGI [2]: > 100 µM | TGI [3]: > 100 µM | TGI [4]: > 100 µM | TGI [5]: > 100 µM | TGI [6]: > 100 µM | TGI [7]: 36 µM | TGI [8]: 44.2 µM | TGI [9]: > 100 µM | TGI [10]: > 100 µM | TGI [11]: > 100 µM | TGI [12]: > 100 µM | TGI [13]: > 65.8 µM | TGI [14]: 33.4 µM | TGI [15]: > 61.7 µM

Cc1ccc2nc(C=Nc3ccc(Cl)cc3)cc(C)c2c1
TGI [1]: 16.7 µM | TGI [2]: > 51.3 µM | TGI [3]: > 83.1 µM | TGI [4]: 32.1 µM | TGI [5]: > 100 µM | TGI [6]: 37.8 µM | TGI [7]: > 96.4 µM | TGI [8]: > 76.7 µM | TGI [9]: 21.1 µM | TGI [10]: 13.1 µM | TGI [11]: 14.3 µM | TGI [12]: 32.9 µM | TGI [13]: > 100 µM | TGI [14]: > 69.4 µM | TGI [15]: 22.5 µM

c1ccc2c(c1)CCc1[nH]c3c(c1-2)-c1ccccc1CC3
TGI [1]: > 100 µM | TGI [2]: > 100 µM | TGI [3]: > 100 µM | TGI [4]: > 100 µM | TGI [5]: > 100 µM | TGI [6]: > 100 µM | TGI [7]: > 100 µM | TGI [8]: > 100 µM | TGI [9]: > 100 µM | TGI [10]: > 100 µM | TGI [11]: > 100 µM | TGI [12]: > 100 µM | TGI [13]: > 100 µM | TGI [14]: > 100 µM | TGI [15]: 58.5 µM

OCCOc1ccccc2cccc1-2
TGI [1]: > 100 µM | TGI [2]: > 100 µM | TGI [3]: > 100 µM | TGI [4]: > 100 µM | TGI [5]: > 100 µM | TGI [6]: > 100 µM | TGI [7]: > 100 µM | TGI [8]: > 100 µM | TGI [9]: > 100 µM | TGI [10]: > 100 µM | TGI [11]: > 100 µM | TGI [12]: > 100 µM | TGI [13]: > 100 µM | TGI [14]: > 100 µM | TGI [15]: > 100 µM

CCOP(=O)(OCC)/C(C#N)=C/c1cnc[nH]1
TGI [1]: > 100 µM | TGI [2]: > 100 µM | TGI [3]: > 100 µM | TGI [4]: > 100 µM | TGI [5]: > 100 µM | TGI [6]: > 100 µM | TGI [7]: > 100 µM | TGI [8]: > 100 µM | TGI [9]: > 100 µM | TGI [10]: > 100 µM | TGI [11]: > 100 µM | TGI [12]: > 100 µM | TGI [13]: > 100 µM | TGI [14]: > 100 µM | TGI [15]: > 100 µM

CC(C)(C)c1cc2c(O)c(c1)Cc1cc(C(C)(C)C)cc(c1O)Cc1cc(C(C)(C)C)cc(c1O)Cc1cc(C(C)(C)C)cc(c1O)Cc1cc(C(C)(C)C)cc(c1O)Cc1cc(C(C)(C)C)cc(c1O)Cc1cc(C(C)(C)C)cc(c1O)Cc1cc(C(C)(C)C)cc(c1O)C2
TGI [1]: > 50 µM | TGI [2]: > 50 µM | TGI [3]: > 50 µM | TGI [4]: > 50 µM | TGI [5]: > 50 µM | TGI [6]: > 50 µM | TGI [7]: > 50 µM | TGI [8]: > 50 µM | TGI [9]: > 50 µM | TGI [10]: > 50 µM | TGI [11]: > 50 µM | TGI [12]: > 50 µM | TGI [13]: > 50 µM | TGI [14]: > 50 µM | TGI [15]: > 50 µM

O=c1[nH]c(=O)n(C2OC(CO)C(O)C2O)cc1Oc1ccccc1 (stereo unspecified)
TGI [1]: > 100 µM | TGI [3]: > 100 µM | TGI [4]: > 100 µM | TGI [5]: > 100 µM | TGI [6]: > 100 µM | TGI [7]: > 100 µM | TGI [8]: > 100 µM | TGI [9]: > 100 µM | TGI [10]: > 100 µM | TGI [11]: > 100 µM | TGI [12]: > 100 µM | TGI [13]: > 100 µM | TGI [14]: > 100 µM | TGI [15]: > 100 µM

COc1ccc2nc3ccc(OC)cc3c(SCc3ccccc3)c2c1
TGI [1]: > 100 µM | TGI [2]: > 100 µM | TGI [3]: > 100 µM | TGI [4]: > 100 µM | TGI [5]: > 100 µM | TGI [6]: > 100 µM | TGI [7]: > 100 µM | TGI [8]: > 100 µM | TGI [9]: > 50 µM | TGI [10]: > 94.1 µM | TGI [11]: > 100 µM | TGI [12]: > 100 µM | TGI [13]: > 100 µM | TGI [14]: > 100 µM | TGI [15]: > 100 µM

C=C(CN1CC2C[C@](C(=O)OC)(c3cc4ccccc4[nH]3)C1C(OC)C2OC)S(=O)(=O)c1ccccc1 (stereo partly specified)
TGI [1]: 5.12 µM | TGI [2]: 6.06 µM | TGI [3]: 12.5 µM | TGI [4]: 20.7 µM | TGI [5]: 13.8 µM | TGI [6]: 9.44 µM | TGI [7]: 9.24 µM | TGI [8]: 11.7 µM | TGI [9]: 9.36 µM | TGI [10]: > 77.2 µM | TGI [11]: 7.08 µM | TGI [12]: 8.52 µM | TGI [13]: 13 µM | TGI [14]: 10.9 µM | TGI [15]: 23.4 µM

From PubChem BioAssay (NCI)
